# Assay results published in patent US20230141887A1, “CRYSTAL FORM OF DIAZASPIROPYRAN COMPOUND” (MEDSHINE DISCOVERY INC., priority 2020, published 2023).
# Legend:
# FLT3(D835H) = molecular target: T1, FLT3(D835H) (Homo sapiens, UniProt P36888, D835H); type: binding
# T1 sequence (P36888 27-993 D835H): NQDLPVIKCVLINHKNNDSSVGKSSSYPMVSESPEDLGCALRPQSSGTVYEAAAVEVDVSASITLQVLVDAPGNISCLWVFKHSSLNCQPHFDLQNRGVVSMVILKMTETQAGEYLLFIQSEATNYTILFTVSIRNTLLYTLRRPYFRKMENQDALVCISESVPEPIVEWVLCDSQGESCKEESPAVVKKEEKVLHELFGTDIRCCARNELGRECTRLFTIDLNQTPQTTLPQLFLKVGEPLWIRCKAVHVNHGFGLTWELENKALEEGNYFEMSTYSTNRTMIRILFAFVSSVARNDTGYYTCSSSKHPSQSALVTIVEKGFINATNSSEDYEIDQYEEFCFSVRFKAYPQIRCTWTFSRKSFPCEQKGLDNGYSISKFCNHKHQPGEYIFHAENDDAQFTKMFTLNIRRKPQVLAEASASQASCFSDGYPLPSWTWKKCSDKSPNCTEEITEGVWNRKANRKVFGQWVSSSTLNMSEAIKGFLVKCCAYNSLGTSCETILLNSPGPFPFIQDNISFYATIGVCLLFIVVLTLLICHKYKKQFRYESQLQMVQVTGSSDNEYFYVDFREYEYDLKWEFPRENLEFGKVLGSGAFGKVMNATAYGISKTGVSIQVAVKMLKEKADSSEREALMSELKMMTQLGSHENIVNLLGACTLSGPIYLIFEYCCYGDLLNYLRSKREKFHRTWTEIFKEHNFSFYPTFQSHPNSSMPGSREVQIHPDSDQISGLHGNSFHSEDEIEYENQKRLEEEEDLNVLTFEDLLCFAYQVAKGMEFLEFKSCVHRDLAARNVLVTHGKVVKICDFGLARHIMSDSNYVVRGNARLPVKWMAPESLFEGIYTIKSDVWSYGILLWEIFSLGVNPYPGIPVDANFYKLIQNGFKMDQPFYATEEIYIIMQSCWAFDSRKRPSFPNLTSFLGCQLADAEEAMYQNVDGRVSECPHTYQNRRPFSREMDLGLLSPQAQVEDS
# Description: (§1) The assay was carried out using KINOMEscan™ technology. The assay compounds were stored in 100% DMSO. The assay was carried out by means of 3-fold dilution and 11-point fitting. All compounds used for Kd determination were dispersed by ultrasound, then directly diluted and tested. All reactions were carried out in a 384-well polypropylene plate. Each portion has a final volume of 0.02 ml. The plate was incubated with shaking at room temperature for 1 hour, and then processed. The kinase concentration in the eluent was finally determined by qPCR method. Kd was obtained by fitting.
# FLT3(ITD, D835V) = molecular target: T2, FLT3(ITD, D835V) (Homo sapiens, UniProt P36888, D835V, form not given); type: binding
# T2 construct: fused on or other part: DNA tag for the qPCR read-out (the KINOMEscan format)
# T2 sequence (P36888 1-993 D835V): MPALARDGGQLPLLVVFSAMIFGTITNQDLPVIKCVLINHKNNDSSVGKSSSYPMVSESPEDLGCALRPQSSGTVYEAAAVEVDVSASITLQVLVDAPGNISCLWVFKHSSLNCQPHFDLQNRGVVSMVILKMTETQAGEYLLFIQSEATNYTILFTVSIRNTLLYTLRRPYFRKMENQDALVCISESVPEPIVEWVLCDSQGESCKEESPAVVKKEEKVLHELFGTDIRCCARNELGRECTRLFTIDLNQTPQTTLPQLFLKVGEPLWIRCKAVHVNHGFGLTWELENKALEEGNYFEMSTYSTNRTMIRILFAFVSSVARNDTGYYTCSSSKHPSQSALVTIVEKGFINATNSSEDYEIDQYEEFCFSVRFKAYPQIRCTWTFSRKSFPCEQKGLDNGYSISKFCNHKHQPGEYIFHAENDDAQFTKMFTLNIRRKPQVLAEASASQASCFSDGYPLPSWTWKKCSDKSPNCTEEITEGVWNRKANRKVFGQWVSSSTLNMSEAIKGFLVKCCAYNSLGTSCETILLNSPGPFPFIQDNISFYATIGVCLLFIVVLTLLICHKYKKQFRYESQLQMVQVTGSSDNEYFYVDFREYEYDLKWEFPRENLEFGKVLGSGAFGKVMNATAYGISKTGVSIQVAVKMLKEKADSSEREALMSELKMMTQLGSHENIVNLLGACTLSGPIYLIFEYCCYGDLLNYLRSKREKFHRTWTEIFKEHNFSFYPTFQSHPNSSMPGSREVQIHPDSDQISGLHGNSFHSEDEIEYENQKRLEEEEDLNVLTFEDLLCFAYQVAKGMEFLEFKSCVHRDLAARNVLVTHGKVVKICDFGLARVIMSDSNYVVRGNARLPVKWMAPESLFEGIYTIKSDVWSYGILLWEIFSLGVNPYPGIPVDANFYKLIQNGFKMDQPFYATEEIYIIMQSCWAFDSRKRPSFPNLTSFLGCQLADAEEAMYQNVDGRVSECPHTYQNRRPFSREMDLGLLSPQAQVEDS
# Description: as §1
compound,measurement,setting,value
CCc1nc(C(N)=O)c(Nc2ccc(N3CCC4(CCN(C)CC4)CC3)c(C)c2)nc1NC1CCOCC1.O=C(O)C(F)(F)F,Kd,FLT3(D835H),2.3 nM
same,Kd,"FLT3(ITD, D835V)",0.2 nM
